These are literature values, as cited in US8309108B2, “Intranasal compositions” (Archimedes Development Limited, priority 2007, dated 2012).

Counter-ions that a name gives are not always drawn.

For the data set the following is noted: room temperature.

Turning to `CN1CCc2cccc3c2C1Cc1ccc(O)c(O)c1-3` (stereo not shown) [apomorphine hydrochloride, 6aβ-aporphine-10,11-diol], the Saturated aqueous solubility entry is recorded as “around 20 mg/ml”.
